Results: patent US20230331803A1, “CO-AGONISTS OF THE GLP-1 AND AMYLIN RECEPTORS” (priority 2020, published 2023)
Like-named read-outs stand apart in the source and are kept apart here. Starred links: 1 amine or outer side, 2 acyl side, 3 side chain; linkers in the order of their positions; H or OH if unused. Non-standard residues stand in square brackets, D forms with d. Groups on a side chain read outwards from the residue. *: point of attachment. Decanoyl(10-(4-HOOC-PhO)) = O=C(O)c1ccc(OCCCCCCCCCC(=O)*)cc1; C20 diacid = O=C(O)CCCCCCCCCCCCCCCCCCC(=O)*; C18 diacid = O=C(O)CCCCCCCCCCCCCCCCC(=O)*; C16 diacid = O=C(O)CCCCCCCCCCCCCCC(=O)*; γGlu = O=C(O)[C@H](CCC(=O)[*:2])N[*:1]; εLys = N[C@@H](CCCCN[*:1])C(=O)[*:2]; Trx = NC[C@H]1CC[C@H](C(=O)O)CC1; AEEA = NCCOCCOCC(=O)O; Aib = CC(C)(N)C(=O)O

Key:
[1] = Pharmacokinetic studies in Beagle dogs after oral administration of SNAC-based tablets; format: in vivo; conditions: for Tmax / half-life / T½: male, Beagle
How it was run: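 Fasted male Beagle dogs received immediate-release oral tablets containing 3–4 mg test substance with 100–300 mg SNAC, optionally after ~3 nmol/kg s.c. SEQ ID NO: 237 10 min before. EDTA plasma sampled up to 240 h; LCMS concentrations analysed non-compartmentally.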

[2] = biological target: T1, human amylin receptor (hAmyR3) (Homo sapiens, UniProt O60896+P30988); test: Human amylin receptor in vitro potency assay (CRE-luciferase reporter, BHK cells); format: cell-based; conditions: for Ability to agonise the amylin receptor, in words: Tables 4a-4c;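 for all read-outs here: BHK cells expressing human calcitonin receptor plus RAMP3 (amylin-3 receptor) with a CRE-luciferase reporter, agonist activity read as luminescence from cAMP-driven transcription, 7-point serial dilutions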
T1 construct: host or cells: BHK cells (Hollex-1 line: human calcitonin receptor (a) + CRE-Luc), further transfected with human RAMP3

human GLP-1 receptor = biological target: T2, human GLP-1 receptor (Homo sapiens, UniProt P43220); test: Human GLP-1 receptor in vitro potency assay (CRE-luciferase reporter, BHK cells); format: cell-based; conditions: for Ability to agonise the GLP-1 receptor, in words: Tables 4a-4c
T2 construct: expressed in transfected cells; host or cells: BHK (Baby Hamster Kidney) cells, clone BHK 467-12A KZ-10, stably transfected, with CRE-luciferase reporter
Description: It is thus possible to measure GLP-1 receptor activity using a CRE-luciferase reporter gene introduced into Baby Hamster Kidney (BHK) cells co-expressing the GLP-1 receptor.
Cells were aliquoted and stored at -180° C. until use.
Plates were sealed and incubated at room temperature with gentle shaking for 30 minutes while protected from light. Luminescence was detected on a luminescence plate reader e.g. a Synergy 2 (BioTek).

Sprague Dawley (SD) rats = test: Acute food intake in ad libitum fed rats after a single subcutaneous administration; format: in vivo, rat; conditions: for Food intake relative to vehicle (%) 0-24 hr, 10 nmol/kg / Food intake relative to vehicle (%) 24-48 hr, 10 nmol/kg: rat, single administration;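 for all read-outs here: food intake monitored in the HM2 system, three rats per cage kept on a reversed light cycle, with food and water freely available after the subcutaneous dose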
Excerpt: Sprague Dawley (SD) rats from Taconic Europe, Denmark were used for the acute food intake experiments, wherein the principles of laboratory animal care were followed.
The rats arrived at least 10-14 days before the start of the experiment to allow acclimatisation to experimental settings. During this period, the animals were handled at least 2 times. Immediately upon arrival, rats were put on a reversed light cycle (dark from 11am - 11pm) and put in the HM2 system and ID chipped. Three rats were housed in each cage. […] The rats were dosed once according to body weight with a 0.01-3 mg/kg solution administered subcutaneously (sc). The time of dosing was recorded for each group.
After dosing, the rats were returned to their home cages, where they had access to food and water. […] At the end of the experimental session, the animals were euthanised.

[3] = dogs, oral administration (tablet)
[4] = dog, in vivo, dogs, oral administration (tablet), read-out: Tmax
[5] = dog, in vivo, dogs, oral administration (tablet), read-out: T½ (converted)
[6] = Table 4a, BHK hAmyR3/CRE-Luc cells, 3 hours, read-out: Human AmyR3 potency [EC50 (pM)]
[7] = Table 4a, BHK cells expressing human GLP-1R, CRE-Luc, 3 hours, read-out: Human GLP-1R potency [EC50 (pM)]

T1 sequence (P30988 25-474): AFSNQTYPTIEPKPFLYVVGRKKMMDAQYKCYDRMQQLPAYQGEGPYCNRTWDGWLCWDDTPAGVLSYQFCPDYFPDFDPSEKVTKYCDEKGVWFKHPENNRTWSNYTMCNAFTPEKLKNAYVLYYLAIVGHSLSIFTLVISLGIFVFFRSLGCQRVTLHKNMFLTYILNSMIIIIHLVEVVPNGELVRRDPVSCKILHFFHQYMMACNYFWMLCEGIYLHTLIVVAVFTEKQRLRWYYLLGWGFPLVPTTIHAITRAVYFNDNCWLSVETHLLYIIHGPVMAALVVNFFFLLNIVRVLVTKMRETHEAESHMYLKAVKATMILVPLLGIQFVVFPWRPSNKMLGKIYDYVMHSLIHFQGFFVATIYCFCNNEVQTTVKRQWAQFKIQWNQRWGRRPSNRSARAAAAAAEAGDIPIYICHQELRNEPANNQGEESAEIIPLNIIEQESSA
T1 sequence (O60896 24-148): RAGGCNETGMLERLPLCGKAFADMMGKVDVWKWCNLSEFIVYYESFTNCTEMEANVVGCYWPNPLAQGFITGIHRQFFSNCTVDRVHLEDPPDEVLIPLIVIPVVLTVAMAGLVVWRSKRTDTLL
T2 sequence (P43220 24-463): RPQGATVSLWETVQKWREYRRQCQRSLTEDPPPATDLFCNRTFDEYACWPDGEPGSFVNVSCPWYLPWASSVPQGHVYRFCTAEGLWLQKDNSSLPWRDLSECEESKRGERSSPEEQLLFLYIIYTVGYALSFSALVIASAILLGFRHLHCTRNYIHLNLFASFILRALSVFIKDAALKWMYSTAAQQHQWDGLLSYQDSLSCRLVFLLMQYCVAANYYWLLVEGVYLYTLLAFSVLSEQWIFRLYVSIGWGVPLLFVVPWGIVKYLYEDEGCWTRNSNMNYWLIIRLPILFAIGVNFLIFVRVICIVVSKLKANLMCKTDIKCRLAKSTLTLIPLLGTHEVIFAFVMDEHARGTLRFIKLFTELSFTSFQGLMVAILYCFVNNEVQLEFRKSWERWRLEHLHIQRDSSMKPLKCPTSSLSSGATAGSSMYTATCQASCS

Compound	Tmax ([1]; dog, in vivo, po, Tmax (hr)) [h]	half-life ([1]; dog, in vivo, po, T½ (hr)) [h]	EC50 [2, 6] [pM]	EC50 (human GLP-1 receptor; [7]) [pM]	AUC/D ([1]; dog, in vivo, po) [kg·h/L]	Cmax/D ([1]; dog, in vivo, po) [kg/L]	Food intake relative to vehicle (%) 0-24 hr, 10 nmol/kg (Sprague Dawley (SD) rats; Table 6a) [%]	Food intake relative to vehicle (%) 24-48 hr, 10 nmol/kg (Sprague Dawley (SD) rats; Table 6a) [%]	further results
CC[C@H](C)[C@H](NC(=O)[C@H](Cc1ccccc1)NC(=O)[C@H](CCC(=O)O)NC(=O)[C@H](CCCNC(=N)N)NC(=O)[C@H](C)NC(=O)[C@H](C)NC(=O)[C@H](CCC(N)=O)NC(=O)[C@H](CCC(=O)O)NC(=O)[C@H](CCC(=O)O)NC(=O)[C@H](CC(C)C)NC(=O)[C@H](Cc1ccc(O)cc1)NC(=O)[C@H](CO)NC(=O)[C@H](CO)NC(=O)[C@H](CCCCNC(=O)COCCOCCNC(=O)COCCOCCNC(=O)CC[C@H](NC(=O)[C@H]1CC[C@H](CNC(=O)CCCCCCCCCCCCCCCCCCC(=O)O)CC1)C(=O)O)NC(=O)[C@H](CC(=O)O)NC(=O)[C@H](CO)NC(=O)[C@@H](NC(=O)[C@H](Cc1ccccc1)NC(=O)[C@@H](NC(=O)CNC(=O)[C@H](CCC(=O)O)NC(=O)C(C)(C)NC(=O)[C@@H](N)Cc1c[nH]cn1)[C@@H](C)O)[C@@H](C)O)C(=O)N[C@@H](CCC(=O)O)C(=O)N[C@@H](Cc1c[nH]c2ccccc12)C(=O)N[C@@H](CC(C)C)C(=O)N[C@H](C(=O)N[C@@H](CCCNC(=N)N)C(=O)NCC(=O)N[C@@H](CCCNC(=N)N)C(=O)NCC(=O)N[C@@H](CCC(=O)O)C(=O)N[C@@H](C)C(=O)N[C@@H](CO)C(=O)N[C@@H](CCC(=O)O)C(=O)N[C@@H](CC(C)C)C(=O)N[C@@H](CO)C(=O)N[C@H](C(=O)N[C@@H](C)C(=O)N[C@@H](C)C(=O)N[C@@H](CC(C)C)C(=O)NCC(=O)N[C@@H](CCCNC(=N)N)C(=O)N[C@@H](CC(C)C)C(=O)N[C@@H](CO)C(=O)N[C@@H](C)C(=O)N[C@@H](CCC(=O)O)C(=O)N[C@@H](CC(C)C)C(=O)N[C@@H](Cc1c[nH]cn1)C(=O)N[C@@H](CCC(=O)O)C(=O)N[C@@H](CC(C)C)C(=O)N[C@@H](C)C(=O)N[C@H](C(=O)N[C@@H](CC(C)C)C(=O)N1CCC[C@H]1C(=O)N[C@@H](CCCNC(=N)N)C(=O)N[C@H](C(=O)N[C@@H](CCC(=O)O)C(=O)N[C@H](C(=O)NCC(=O)N[C@@H](CO)C(=O)NCC(=O)N[C@@H](CO)C(=O)N1CCC[C@H]1C(N)=O)[C@@H](C)O)[C@@H](C)O)[C@@H](C)O)[C@@H](C)O)C(C)C [Compound 0440]	–	–	–	–	–	–	81	77	AUC/D [1, 3]: 5.78 kg·h/L; Cmax/D [1, 3]: 0.29 kg/L; Tmax [1, 4]: 1.8 h; half-life [1, 5]: 32 h; EC50 [2]: 10.4 pM; EC50 (human GLP-1 receptor): 5.7 pM
H-HWEGTFTSDVSSYLEEQAARK([AEEA-AEEA-γGlu-Decanoyl(10-(4-HOOC-PhO))])FIEWLVRGRGEGGGGGASELSTAALGRLSAELHELK([AEEA-AEEA-γGlu-Decanoyl(10-(4-HOOC-PhO))])TLPRTETGSGSP-NH2 [Compound 0232]	–	–	–	–	–	–	61	95	AUC/D [1, 3]: 2.00 kg·h/L; Cmax/D [1, 3]: 0.51 kg/L; Tmax [1, 4]: 0.8 h; half-life [1, 5]: 4 h; EC50 [2]: 74.2 pM; EC50 (human GLP-1 receptor): 6.4 pM
H-HWEGTFTSDVSSYLEEQAARK([AEEA-AEEA-γGlu-Decanoyl(10-(4-HOOC-PhO))])FIEWLVRGRGEGGGGGASELSTAALGRLSK([AEEA-AEEA-γGlu-Decanoyl(10-(4-HOOC-PhO))])ELHELATLPRTETGSGSP-NH2 [Compound 0231]	–	–	–	–	–	–	27	76	AUC/D [1, 3]: 0.83 kg·h/L; Cmax/D [1, 3]: 0.27 kg/L; Tmax [1, 4]: 1 h; half-life [1, 5]: 6 h; EC50 [2]: 68 pM; EC50 (human GLP-1 receptor): 5.6 pM
H-H[Aib]EGTFTSDVSRYLEEQAAREFIEWLVRGRK([AEEA-AEEA-γGlu-Trx-C20 diacid])GGGGEASELSTAALGRLSAELHELATLPRTETGSGSP-NH2 [Compound 0511]	2	25	8.4	8.8	3.80	0.14	61	75	–
H-H[Aib]EGTFTSDVSSYLEEQAAREFIAWLVRGRK([AEEA-AEEA-γGlu-C20 diacid])GGGGEASELSTAALGRLSAELHELATLPRTETGSGSP-NH2 [Compound 0502]	2	66	9	8.4	–	–	61	72	Tmax ([1]; dog, in vivo, po): 4.0 h
H-H[Aib]EGTFTSDVSSYLEEQAARK([εLys-AEEA-AEEA-γGlu-Trx-C20 diacid])FIEWLVRGRGEASELSTAALGRLSAELHELATLPRTETGSGSP-NH2 [Compound 0439]	2	24	10.7	8.3	5.36	0.21	43	41	–
H-H[Aib]EGTFTSDVSSYLEGQAAREFIAWLVRGRGQEPK([AEEA-AEEA-γGlu-C18 diacid])GQAPEASELSTAALGRLSAELHELATLPRTETGSGSP-NH2 [Compound 0084]	1.5	47	14	2.5	15.16	0.36	44	50	–

The remaining compounds from weak to strong by EC50 [2, 6], led by results:

Tmax ([1]; dog, in vivo, po, Tmax (hr)) [h]	half-life ([1]; dog, in vivo, po, T½ (hr)) [h]	EC50 [2, 6] [pM]	EC50 (human GLP-1 receptor; [7]) [pM]	AUC/D ([1]; dog, in vivo, po) [kg·h/L]	Cmax/D ([1]; dog, in vivo, po) [kg/L]	Compound	Food intake relative to vehicle (%) 0-24 hr, 10 nmol/kg (Sprague Dawley (SD) rats; Table 6a) [%]	Food intake relative to vehicle (%) 24-48 hr, 10 nmol/kg (Sprague Dawley (SD) rats; Table 6a) [%]	further results
1.3	41	25.9	19.4	10.90	0.27	H-H[Aib]EGTFTSDVSSYLEGQAAKEFIAWLVRGRK([εLys-AEEA-AEEA-γGlu-C18 diacid])GGEASELSTAALGRLSAELHELATLPRTETGSGSP-NH2 [Compound 0045]	46	80	–
1.5	44	11.5	3	–	–	H-H[Aib]EGTFTSDVSSYLEEQAAREFIAWLVRGRK([AEEA-AEEA-γGlu-C18 diacid])GGGGEASELSTAALGRLSAELHELATLPRTETGSGSP-NH2 [Compound 0111]	28	75	Tmax ([1]; dog, in vivo, po): 2.0 h; T½ ([1]; dog, in vivo, po): 42 h; Ability to agonise the amylin receptor, in words [2]: retained full potency on both receptors; Ability to agonise the GLP-1 receptor, in words (human GLP-1 receptor): retained full potency on both receptors
–	24	10.6	9.1	–	–	H-H[Aib]EGTFTSDVSSYLEEQAAREFIAWLVRGRK([AEEA-AEEA-γGlu-Trx-C20 diacid])GGGGEASELSTAALGRLSAELHELATLPRTETGSGSP-NH2 [Compound 0120]	53	55	T½ ([1]; dog, in vivo, po): 22 h; Ability to agonise the amylin receptor, in words [2]: fully potent on both receptors; Ability to agonise the GLP-1 receptor, in words (human GLP-1 receptor): fully potent on both receptors; Food intake relative to vehicle (%) 0-24 hr, 10 nmol/kg (Sprague Dawley (SD) rats; Table 6b): 53%; Food intake relative to vehicle (%) 24-48 hr, 10 nmol/kg (Sprague Dawley (SD) rats; Table 6b): 55%; Inhibition of food intake, in words (Sprague Dawley (SD) rats; rats, 10 nmol/kg): significant inhibition of food intake within the first 48 hours
2	99	8.9	3.3	–	–	H-H[Aib]EGTFTSDVSK([AEEA-AEEA-γGlu-C16 diacid])YLEEQAARK([AEEA-AEEA-γGlu-C16 diacid])FIAWLVRGRGGGGGEASELSTAALGRLSAELHELATLPRTETGSGSP-NH2 [Compound 0516]	87	82	T½ ([1]; dog, in vivo, po): 103 h
1	52	6.9	4.7	8.58	0.22	H-H[Aib]EGTFTSDVSSYLEEQAAREFIAWLVRGRK([εLys-AEEA-AEEA-γGlu-C20 diacid])GGGGEASELSTAALGRLSAELHELATLPRTETGSGSP-NH2 [Compound 0552]	56	55	–
1.5	29	6	2.3	7.57	0.37	H-H[Aib]EGTFTSDVSK([AEEA-AEEA-γGlu-C18 diacid])YLEEQAAREFIAWLVRGRGGGGGEASELSTAALGRLSAELHELATLPRTETGSGSP-NH2 [Compound 0640]	28	66	–
